Measurements published in ChEMBL document CHEMBL1153961, “Antiproliferative and antimalarial anthraquinones of Scutia myrtina from the Madagascar forest” (Bioorg Med Chem, 2009).
pIC50: −log10 of the molar value.

How the values were obtained:
A2780 = test: Cytotoxicity against human A2780 cells; assay type: cell-based
Plasmodium falciparum [1] = test: Antiplasmodial activity against chloroquine-resistant Plasmodium falciparum FCM29 by SYBR green assay; assay type: functional, organism-based
Plasmodium falciparum [2] = test: Antiplasmodial activity against chloroquine-resistant Plasmodium falciparum Dd2 by SYBR green assay; assay type: functional, organism-based
[3] = Selectivity index, ratio of IC50 for human A2780 cells to IC50 for Plasmodium falciparum FCM29; assay type: toxicity, cell-based; conditions: A2780 cells versus Plasmodium falciparum FCM29, read-out: Ratio IC50
[4] = Selectivity index, ratio of IC50 for human A2780 cells to IC50 for Plasmodium falciparum Dd2; assay type: toxicity, cell-based; conditions: A2780 cells versus Plasmodium falciparum Dd2, read-out: Ratio IC50

SMILES | pIC50 (A2780) | pIC50 (Plasmodium falciparum [1]) | pIC50 (Plasmodium falciparum [2]) | selectivity ratio [3] | selectivity ratio [4]
CC(=O)O[C@H]1C(=O)[C@@]2(C)[C@H]([C@H](OC(=O)c3ccccc3)[C@]3(O)C[C@H](OC(=O)[C@H](O)[C@@H](NC(=O)c4ccccc4)c4ccccc4)C(C)=C1C3(C)C)[C@]1(OC(C)=O)CO[C@@H]1C[C@@H]2O [PACLITAXEL] | 7.85 | – | – | – | –
COC(=O)c1c(O)cc2c(c1C)C(=O)c1c(ccc(C3(OC(=O)C(C)C)c4cccc(O)c4C(=O)c4c3cc(O)c(C(=O)OC)c4C)c1O)C2=O (stereo unspecified) [SCUTIANTHRAQUINONE B] | 5.24 | 5.27 | 5.94 | 1.1 | 5.1
CCC(C)C(=O)OC1(c2ccc3c(c2O)C(=O)c2c(cc(O)c(C(=O)OC)c2C)C3(OC(=O)C(C)CC)c2ccc3c(c2O)C(=O)c2c(cc(O)c(C(=O)OC)c2C)C3=O)c2cccc(O)c2C(=O)c2c1cc(O)c(C(=O)OC)c2C (stereo unspecified) [SCUTIANTHRAQUINONE D] | 5.37 | 5.25 | 5.43 | 0.8 | 1.2
CCC(C)C(=O)OC1(c2ccc3c(c2O)C(=O)c2c(cc(O)c(C(=O)OC)c2C)C3=O)c2cccc(O)c2C(=O)c2c1cc(O)c(C(=O)OC)c2C (stereo unspecified) [SCUTIANTHRAQUINONE A] | 5.12 | 5.92 | 5.91 | 6.3 | 6.1
C=C[C@H]1CN2CC[C@H]1C[C@H]2[C@H](O)c1ccnc2ccc(OC)cc12 [QUININE] | – | 6.66 | – | – | –
COC(=O)c1c(O)cc2c(c1C)C(=O)c1c(ccc(C3(O)c4cccc(O)c4C(=O)c4c3cc(O)c(C(=O)OC)c4C)c1O)C2=O (stereo unspecified) [SCUTIANTHRAQUINONE C] | < 4.80 | 4.81 | 5.50 | > 1 | > 5
COC(=O)c1c(O)cc2c(c1C)C(=O)c1c(O)cccc1C2=O [ALOESAPONARIN I] | < 4.49 | 4.11 | 5.25 | – | > 5.7
